Laboratory results reported in patent US7125900B2, “Inhibitors of 11-β-hydroxy steroid dehydrogenase type 1” (Biovitrum AB, priority 2000, dated 2006).

Experiments:
human 11-β-HSD1 enzyme = molecular target: T1, human 11-β-HSD1 enzyme (Homo sapiens, UniProt P28845); assay: human 11-β-HSD1 enzyme assay (scintillation proximity assay); type: biochemical; conditions: human 11-β-HSD1 expressed in Pichia pastoris; Ki calculated from IC50 by Cheng-Prusoff
T1 construct: made in house; host or cells: Pichia pastoris
T1 sequence (P28845 whole entry): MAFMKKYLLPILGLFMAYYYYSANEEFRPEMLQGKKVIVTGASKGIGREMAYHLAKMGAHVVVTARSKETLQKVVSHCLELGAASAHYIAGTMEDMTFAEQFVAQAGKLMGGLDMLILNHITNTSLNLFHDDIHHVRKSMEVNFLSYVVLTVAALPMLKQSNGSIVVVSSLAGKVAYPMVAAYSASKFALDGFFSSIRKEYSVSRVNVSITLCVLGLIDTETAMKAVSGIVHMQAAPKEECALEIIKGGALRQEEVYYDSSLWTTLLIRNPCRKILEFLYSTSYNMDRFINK
Text: [1, 2(n)—^3H]-cortisone was purchased from Amersham Pharmacia Biotech. Anti-cortisol monoclonal mouse antibody, clone 6D6.7 was obtained from Immunotech and Scintillation proximity assay (SPA) beads coated with monoclonal antimouse antibodies were from Amersham Pharmacia Biotech. NADPH, tetrasodium salt was from Calbiochem and glucose-6-phosphate (G-6-P) was supplied by Sigma. The human 11-β-hydroxysteroid dehydrogenase type-I enzyme (11-β-HSD1) was expressed in Pichia pastoris. 18-β-glycyrrhetinic acid (GA) was obtained from Sigma. The serial dilutions of the compounds were performed on a Tecan Genesis RSP 150. Compounds to be tested were dissolved in DMSO (1 mM) and diluted in 50 mM Tris-HCl, pH 7.2 containing 1 mM EDTA.
The multiplication of plates was done on a WallacQuadra. The amount of the product [^3H]-cortisol, bound to the beads was determined in a Packard, Top Count microplate liquid scintillation counter.
The 11-β-HSD1 enzyme assay was carried out in 96 well microtiter plates (Packard, Optiplate) in a total well volume of 220 μL and contained 30 mM Tris-HCl, pH 7.2 with 1 mM EDTA, a substrate mixture tritiated Cortisone/NADPH (175 nM/181 μM), G-6-P (1 mM) and inhibitors in serial dilutions (9 to 0.15 μM). Reactions were initiated by the addition of human 11-β-HSD1, either as Pichia pastoris cell homogenate or microsomes prepared from Pichia pastoris (the final amount of enzyme used was varied between 0.057 to 0.11 mg/mL). Following mixing, the plates were shaken for 30 to 45 minutes at room temperature. The reactions were terminated with 10 μL 1 mM GA stop solution. Monoclonal mouse antibody was then added (10 μL of 4 μM) followed by 100 μL of SPA beads (suspended according to the manufacturers instructions). Appropriate controls were set up by omitting the 11-β-HSD1 to obtain the non-specific binding (NSB) value.
The plates were covered with plastic film and incubated on a shaker for 30 minutes, at room temperature, before counting. The amount of [^3H]-cortisol, bound to the beads was determined in a microplate liquid scintillation counter.
The calculation of the Ki values for the inhibitors was performed by use of Activity Base. The Ki value is calculated from IC50 and the Km value is calculated using the Cheng Prushoff equation (with reversible inhibition that follows the Michaelis-Menten equation): […] [Cheng, Y. C.; Prushoff, W. H. Biochem. Pharmacol. 1973, 22, 3099-3108]. The IC50 is measured experimentally in an assay wherein the decrease of the turnover of cortisone to cortisol is dependent on the inhibition potential of each substance. […] Illustrative of the invention, the following Ki values have been determined in the human 11-β-HSD1 enzyme assay (see Table 1): […]

bone nodule formation = conditions: cited from earlier work

Row | Compound | Ki (human 11-β-HSD1 enzyme) [µM] | melting point [°C] | negative glucocorticoid effect on bone nodule formation (bone nodule formation)
1 | Cc1csc(NS(=O)(=O)c2cccc(Cl)c2C)n1 [Example 3, 3-Chloro-2-methyl-N-(4-methyl-1,3-thiazol-2-yl)benzenesulfonamide] | 0.122 | – | –
2 | Cc1nc(NS(=O)(=O)c2c(Cl)cc(Cl)cc2Cl)sc1CC(Cl)(Cl)Cl [Example 6, 2,4,6-trichloro-N-[4-methyl-5-(2,2,2-trichloroethyl)-1,3-thiazol-2-yl]benzenesulfonamide] | 0.123 | 228 to 229 | –
3 | CCCc1csc(NS(=O)(=O)c2cccc(Cl)c2C)n1 [Example 11, 3-Chloro-2-methyl-N-(4-propyl-1,3-thiazol-2-yl)benzenesulfonamide] | – | 169 | –
4 | Cc1c(Cl)cccc1S(=O)(=O)Nc1nc(C(C)(C)C)cs1 [Example 15, N-(4-Tert-butyl-1,3-thiazol-2-yl)-3-chloro-2-methylbenzenesulfonamide] | – | 178 | –
5 | CC1(C)[C@@H](OC(=O)CCC(=O)O)CC[C@]2(C)[C@H]3C(=O)C=C4[C@@H]5C[C@@](C)(C(=O)O)CC[C@]5(C)CC[C@@]4(C)[C@]3(C)CC[C@@H]12 [carbenoxolone] | – | – | blocked

Now from value to compound, other results behind:

Row | Ki (human 11-β-HSD1 enzyme) [µM] | melting point [°C] | Compound | negative glucocorticoid effect on bone nodule formation (bone nodule formation)
6 | 0.09 | – | C=Cc1csc(NS(=O)(=O)c2cccc(Cl)c2C)n1 [Example 18, 3-Chloro-2-methyl-N-(4-vinyl-1,3-thiazol-2-yl)benzenesulfonamide] | –
7 | 0.108 | – | CC(=O)c1sc(NS(=O)(=O)c2ccc(Oc3cccc(Cl)c3C#N)cc2)nc1C [Example 22, N-(5-acetyl-4-methyl-1,3-thiazol-2-yl)-4-(3-chloro-2-cyanophenoxy)benzenesulfonamide] | –
